These results are taken from PMC10066365, “Nemacol is a small molecule inhibitor of C. elegans vesicular acetylcholine transporter with anthelmintic potential” (Nature Communications, 2023).

Molecules are shown by their SMILES. Where “and” joins values, the source holds several entries; their conditions need not be identical. Equal entries are not always repeated. Where two headings read alike, the source gives them in different places.

For assay [1], the system named is C. elegans unc-17 mutants. The following applies: 60 min, average of 3 biological repeats.
Protocol: Significance was calculated using Fisher’s method (one-sided comparisons; see 'Methods'). […] Worms were incubated on the plates for 60 min.
Locomotor phenotype analyses were done in 24-well plates with 1 mL of MYOB substrate (27.5 g Trizma HCl, 12 g Trizma Base, 230 g bacto tryptone, 10 g NaCl, 0.4 g cholesterol (95%)) seeded with 25 µL of OP50 Escherichia coli on each well. Each compound was added to the MYOB substrate before pouring to achieve the desired final concentrations of 30 µM or 60 µM after diffusion through the media. Synchronized young adult worms are transferred into each well using a platinum wire pick. A Leica MZ75 stereomicroscope was used to visualize the movement of worms on the solid substrate. The specific dominant locomotor phenotype (i.e. ‘Punc’, ‘paralyzed’, ‘coiler’ or ‘wild-type locomotion’) was scored after the touch on the head with a platinum wire over a ~3–5 s of observation. […] Coiled animals were not scored as paralyzed despite sometimes not responding to light touch.
The subject of a further assay is C. elegans. Briefly: Suppression of trichlorfon (AChE inhibitor) paralysis, double dose-response, scored after 80 min. The class given is in vivo, Caenorhabditis elegans. As to conditions: wild-type, bio rep 1-3.
The next assay deals with Pristionchus pacificus. The assay can be described thus: Pristionchus pacificus motor disruption dose-response on solid media, 1 h. As to conditions: for mean % any phene (coiled, jerky-Unc or paralyzed): Pristionchus pacificus young adults, mean of three biological replicates; for EC50: Pristionchus pacificus, 1 h, read-out: P. pacificus motor disruption EC50.
The target in another assay is T1, rat VAChT (Rattus norvegicus, UniProt Q62666).
T1 construct: expressed in transfected cells; host or cells: rat PC12 (PC12 A123.7) cells, stably transfected; shared by Dr. Ali Roghani (Texas Tech University)
T1 sequence (Q62666 1-530): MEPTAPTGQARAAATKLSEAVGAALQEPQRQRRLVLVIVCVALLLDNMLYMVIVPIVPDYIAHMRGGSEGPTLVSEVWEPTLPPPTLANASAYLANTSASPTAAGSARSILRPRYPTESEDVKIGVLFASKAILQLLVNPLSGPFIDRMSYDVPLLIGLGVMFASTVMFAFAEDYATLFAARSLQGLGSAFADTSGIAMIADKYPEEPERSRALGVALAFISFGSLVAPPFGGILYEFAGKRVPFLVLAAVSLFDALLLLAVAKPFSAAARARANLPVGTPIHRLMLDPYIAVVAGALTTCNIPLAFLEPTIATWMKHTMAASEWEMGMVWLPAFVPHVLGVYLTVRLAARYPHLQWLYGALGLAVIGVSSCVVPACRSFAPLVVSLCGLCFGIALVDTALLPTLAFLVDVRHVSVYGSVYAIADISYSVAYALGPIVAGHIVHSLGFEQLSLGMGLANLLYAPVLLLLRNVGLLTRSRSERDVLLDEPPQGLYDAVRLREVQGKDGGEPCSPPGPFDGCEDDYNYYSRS
Briefly: [3H]Vesamicol competitive radioligand binding, PC12 cells expressing ratVAChT. The following applies: ratVAChT Ki, [3H]Vesamicol displacement, mean.

The mark [2] stands for this setting: unc-17 (e245), 15 µM, adult worms.
The mark [3] stands for this setting: unc-17 (e245), 30 µM, adult worms.
The mark [4] stands for this setting: unc-17 (e245), 60 µM, adult worms.
The mark [5] stands for this setting: unc-17 (e245), 120 µM, adult worms.
The mark [6] stands for this setting: unc-17 (e245), 240 µM, adult worms.
The mark [7] stands for this setting: conc 3.75, observed at one hour.

`O[C@@H]1CCCC[C@H]1N1CCC(c2ccccc2)CC1` (racemic) [vesamicol, reference compound]: the “Fraction Coiled” value in assay [1] (setting [2]) is recorded as 0.65; in assay [1] (setting [3]) it was 0.74; in assay [1] (setting [4]), 0.70; in assay [1] (setting [5]), 0.74; in assay [1] (setting [6]), 0.72; in assay [1] (unc-17 (md414), 15 µM), 0.00. In addition, the “Fraction Coiled” value in assay [1] (unc-17 (md414), 30 µM) came out at 0.00; in assay [1] (unc-17 (md414), 60 µM), 0.00; in assay [1] (unc-17 (md414), 120 µM), 0.00; in assay [1] (unc-17 (md414), 240 µM), 0.037. The “Fraction Jerky-Unc” value in assay [1] (setting [2]) worked out at 0.35; in assay [1] (setting [3]), 0.24; in assay [1] (setting [4]), 0.24; in assay [1] (setting [5]) it was 0.14; in assay [1] (setting [6]), 0.15; in assay [1] (unc-17 (md414), 15 µM) it was 0.037. Moreover, the “Fraction Jerky-Unc” value in assay [1] (unc-17 (md414), 30 µM) is 0.0741; in assay [1] (unc-17 (md414), 60 µM), 0.24; in assay [1] (unc-17 (md414), 120 µM), 0.43; in assay [1] (unc-17 (md414), 240 µM) it was 0.61. Further, the “Fraction No Phenotype” value in assay [1] (setting [2]) was 0.00; in assay [1] (setting [3]), 0.00; in assay [1] (setting [4]), 0.00; in assay [1] (setting [5]), 0.00; in assay [1] (setting [6]), 0.00; in assay [1] (unc-17 (md414), 15 µM) it was 0.96. Also, the “Fraction No Phenotype” value in assay [1] (unc-17 (md414), 30 µM) is 0.93; in assay [1] (unc-17 (md414), 60 µM), 0.76; in assay [1] (unc-17 (md414), 120 µM), 0.57; in assay [1] (unc-17 (md414), 240 µM), 0.35. In addition, the “Fraction Parayzed” value is 0.00 in assay [1] (setting [2]); 0.0185 in assay [1] (setting [3]); 0.0556 in assay [1] (setting [4]); 0.12 in assay [1] (setting [5]); 0.13 in assay [1] (setting [6]); 0.00 in assay [1] (unc-17 (md414), 15 µM). For the same molecule, the “Fraction Parayzed” value in assay [1] (unc-17 (md414), 30 µM) came out at 0.00; in assay [1] (unc-17 (md414), 60 µM), 0.00; in assay [1] (unc-17 (md414), 120 µM), 0.00; in assay [1] (unc-17 (md414), 240 µM) it was 0.00. Also, the “% para (percentage of animals able to adopt a clear sinusoidal wave pattern upon touch on the nose)” value with C. elegans (vesamicol 31.75 uM + trichlorfon 0 uM) was 96.4286% and 100%; in the assay with C. elegans (vesamicol 31.75 uM + trichlorfon 25 uM), 92.8571% and 96.4286% and 100%; in the assay on C. elegans (vesamicol 31.75 uM + trichlorfon 50 uM) it was 82.1429% and 71.4286% and 96.4286%; in the assay on C. elegans (vesamicol 31.75 uM + trichlorfon 100 uM) it was 64.2857% and 53.5714% and 42.8571%; with C. elegans (vesamicol 31.75 uM + trichlorfon 400 uM), 0%; in the assay on C. elegans (vesamicol 31.75 uM + trichlorfon 800 uM), 0%. For the same molecule, the “% para (percentage of animals able to adopt a clear sinusoidal wave pattern upon touch on the nose)” value with C. elegans (vesamicol 62.5 uM + trichlorfon 0 uM) was 100%; in the assay with C. elegans (vesamicol 62.5 uM + trichlorfon 25 uM) it was 92.8571% and 100%; with C. elegans (vesamicol 62.5 uM + trichlorfon 50 uM), 89.2857% and 85.7143% and 96.4286%; in the assay on C. elegans (vesamicol 62.5 uM + trichlorfon 100 uM), 67.8571% and 64.2857% and 53.5714%; with C. elegans (vesamicol 62.5 uM + trichlorfon 400 uM), 0% and 3.571%; in the assay with C. elegans (vesamicol 62.5 uM + trichlorfon 800 uM), 0%. The “% para (percentage of animals able to adopt a clear sinusoidal wave pattern upon touch on the nose)” value in the assay on C. elegans (vesamicol 125 uM + trichlorfon 0 uM) is 100%; with C. elegans (vesamicol 125 uM + trichlorfon 25 uM), 96.4286% and 100%; in the assay on C. elegans (vesamicol 125 uM + trichlorfon 50 uM), 96.4286% and 78.5714% and 92.8571%; in the assay with C. elegans (vesamicol 125 uM + trichlorfon 100 uM) it was 85.7143% and 67.8571% and 60.7143%; in the assay on C. elegans (vesamicol 125 uM + trichlorfon 800 uM) it was 0%; in the assay with C. elegans (vesamicol 250 uM + trichlorfon 0 uM), 96.4286% and 100%. The “% para (percentage of animals able to adopt a clear sinusoidal wave pattern upon touch on the nose)” value with C. elegans (vesamicol 250 uM + trichlorfon 25 uM) is 100% and 96.4286%; with C. elegans (vesamicol 250 uM + trichlorfon 50 uM), 96.4286% and 89.2857% and 100%; in the assay with C. elegans (vesamicol 250 uM + trichlorfon 100 uM) it was 75% and 78.5714%; with C. elegans (vesamicol 250 uM + trichlorfon 800 uM), 0%; in the assay with C. elegans (vesamicol 500 uM + trichlorfon 0 uM), 100%; in the assay with C. elegans (vesamicol 500 uM + trichlorfon 25 uM), 100% and 92.8571% and 96.4286%. Moreover, the “% para (percentage of animals able to adopt a clear sinusoidal wave pattern upon touch on the nose)” value was 89.2857% and 96.4286% and 78.5714% with C. elegans (vesamicol 500 uM + trichlorfon 50 uM); 82.1429% and 85.7143% with C. elegans (vesamicol 500 uM + trichlorfon 100 uM); 42.8571% and 50% and 71.4286% with C. elegans (vesamicol 500 uM + trichlorfon 200 uM); 0% in the assay with C. elegans (vesamicol 500 uM + trichlorfon 800 uM). For the same molecule, the “mean % any phene (coiled, jerky-Unc or paralyzed)” value (from here on “mean % any phene”) is 0% with Pristionchus pacificus (setting [7]); 0.8333% with Pristionchus pacificus (conc 15, observed at one hour); 9.167% with Pristionchus pacificus (conc 60, observed at one hour). In addition, the 50% effective concentration (EC50) in the assay on Pristionchus pacificus is above 60 µM. The molecule also displayed a Ki on rat VAChT of 0.021 µM.

For `CCC1CCC(N2CCN(c3ccc([N+](=O)[O-])cc3)CC2)CC1` (stereo not shown) [Nemacol-2], the “mean % any phene” value in the assay with Pristionchus pacificus (setting [7]) was found to be 4.167%; in the assay on Pristionchus pacificus (conc 15, observed at one hour) it was 89.1667%; in the assay with Pristionchus pacificus (conc 60, observed at one hour), 100%. Moreover, the half-maximal effective concentration (EC50) in the assay with Pristionchus pacificus was determined as 8.6 ± 1.3 µM.

`O=[N+]([O-])c1ccc(N2CCN(CC3CC4C=CC3C4)CC2)cc1` (stereo not shown) [Nemacol-3]: the “mean % any phene” value in the assay on Pristionchus pacificus (setting [7]) came to 0%; in the assay on Pristionchus pacificus (conc 15, observed at one hour), 16.6667%; in the assay with Pristionchus pacificus (conc 60, observed at one hour), 95%. The concentration giving a half-maximal response (EC50) in the assay with Pristionchus pacificus worked out at 24.5 ± 2.2 µM.

Regarding `O=[N+]([O-])c1ccc(N2CCN(CC3CC=CCC3)CC2)cc1` (stereo not shown) [Nemacol-4], the “mean % any phene” value with Pristionchus pacificus (setting [7]) turned out to be 0%; in the assay with Pristionchus pacificus (conc 15, observed at one hour), 15.8333%; in the assay on Pristionchus pacificus (conc 60, observed at one hour), 100%. Also, the EC50 with Pristionchus pacificus was 19.2 µM.
